Values quoted from earlier work, collected in patent US20110046156A1, “TREATMENT OF HEARING AND BALANCE IMPAIRMENTS WITH REDOX-ACTIVE THERAPEUTICS” (priority 2009, published 2011).

## [H]/N=C(/N)N[C@H]1[C@H](O)[C@@H](O)[C@H](O[C@@H]2O[C@@H](C)[C@](O)(C=O)[C@H]2O[C@@H]2O[C@@H](CO)[C@H](O)[C@@H](O)[C@@H]2NC)[C@@H](N/C(N)=N\[H])[C@@H]1O [streptomycin]
1 gram per day
  incidence of vestibular impairment: 25%
2 grams daily for 60 to 120 days
  patients displaying some vestibular impairment: ~75%
